Measured values reported in US9302999B2, “Substituted triazoles as herbicides” (E. I. DU PONT DE NEMOURS AND COMPANY, priority 2012, dated 2016).

What was measured:
Format in all cases: in vivo
[1] = tested on: Mustard (SINAR, Sinapisar arvensis); assay: Test H post-emergence, alone and in combination: Mustard
Source text: (§1) Seeds of plant species selected from wheat (TRZAW, Triticum aestivum), barley (HORBW, Hordeum vulgare), Kochia (KCHSC, Kochia caoparia) blackgrass (ALOMY, Alopecurus myosuroides), canarygrass (PHAMI, Phalaris minor), Italian ryegrass (LOLMU, Lolium multiflorum) common lambsquarter (CHEAL, Chenopodium album), pigweed (AMARE, Amaranthus retroflexus), Common Chickweed (STEME, Stellaria media), Russian thistle (SASKR, Salsola iberica), Wild Buckwheat (POLCO, Polygonum convolvulus), Catchweed Bedstraw (GALAP, Galium aparine), Mustard (SINAR, Sinapisar arvensis), Henbit Deadnettle (LAMAM, Lamium amplexicaule), Wild Radish (RAPRA, Raphanus raphanistrum), Field Poppy (PAPRH, Papaver rhoeas), Field Violet (VIOAR, Viola arvennsis), Scentless Chamomile (MATIN Matricaria inodora) were planted into soil and treated post-emergence with test chemicals formulated in a non-phytotoxic solvent mixture. Plants were grown in a greenhouse using supplemental lighting to maintain a photoperiod of approximately 14 hours; daytime and nighttime temperatures were approximately 23°-29° and 16°-19° Celsius, respectively. Balanced fertilizer was applied through the watering system. Treated plants and controls were maintained in a greenhouse for 20 days, after which time all species were compared to controls and visually evaluated. Plant response ratings were calculated as the mean of three replicates (unless otherwise indicated), are summarized in Table G, and are based on a scale of 0 to 100 where 0 is no effect and 100 is complete control. A dash (-) response means no test result.

[2] = tested on: Russian thistle (SASKR, Salsola iberica); assay: Test H post-emergence, alone and in combination: Russian thistle
Source text: as §1

[3] = tested on: Common Chickweed (STEME, Stellaria media); assay: Test H post-emergence, alone and in combination: Common Chickweed
Source text: as §1

[4] = tested on: common lambsquarter (CHEAL, Chenopodium album); assay: Test H post-emergence, alone and in combination: common lambsquarter
Source text: as §1

[5] = tested on: Italian ryegrass (LOLMU, Lolium multiflorum); assay: Test H post-emergence, alone and in combination: Italian ryegrass
Source text: as §1

[6] = tested on: Field Poppy (PAPRH, Papaver rhoeas); assay: Test H post-emergence, alone and in combination: Field Poppy
Source text: as §1

[7] = tested on: Wild Radish (RAPRA, Raphanus raphanistrum); assay: Test H post-emergence, alone and in combination: Wild Radish
Source text: as §1

[8] = tested on: Field Violet (VIOAR, Viola arvennsis); assay: Test H post-emergence, alone and in combination: Field Violet
Source text: as §1

[9] = tested on: Wild Buckwheat (POLCO, Polygonum convolvulus); assay: Test H post-emergence, alone and in combination: Wild Buckwheat
Source text: as §1

[10] = tested on: blackgrass (ALOMY, Alopecurus myosuroides); assay: Test H post-emergence, alone and in combination: blackgrass
Source text: as §1

[11] = tested on: Scentless Chamomile (MATIN Matricaria inodora); assay: Test H post-emergence, alone and in combination: Scentless Chamomile
Source text: as §1

[12] = tested on: canarygrass (PHAMI, Phalaris minor); assay: Test H post-emergence, alone and in combination: canarygrass
Source text: as §1

[13] = tested on: Catchweed Bedstraw (GALAP, Galium aparine); assay: Test H post-emergence, alone and in combination: Catchweed Bedstraw
Source text: as §1

[14] = tested on: pigweed (AMARE, Amaranthus retroflexus); assay: Test H post-emergence, alone and in combination: pigweed
Source text: as §1

[15] = tested on: Henbit Deadnettle (LAMAM, Lamium amplexicaule); assay: Test H post-emergence, alone and in combination: Henbit Deadnettle
Source text: as §1

[16] = tested on: barley (HORBW, Hordeum vulgare); assay: Test H post-emergence, alone and in combination: barley
Source text: as §1

[17] = tested on: wheat (TRZAW, Triticum aestivum); assay: Test H post-emergence, alone and in combination: wheat
Source text: as §1

[18] = tested on: Kochia (KCHSC, Kochia caoparia); assay: Test H post-emergence, alone and in combination: Kochia
Source text: as §1

[19] = tested on: barnyardgrass (Echinochloa crus-galli); assay: Test B flooded paddy: barnyardgrass; settings: Flood; 250 g ai/ha; applied to paddy water at 2-leaf stage; visually evaluated after 13 to 15 days
In short: (§2)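 Plants were grown to the 2-leaf stage, then pots were flooded to 3 cm above the soil and compounds were applied directly into the paddy water. Water depth was held for the whole test; after 13 to 15 days in a greenhouse, injury was visually rated against untreated controls (0 = no effect, 100 = complete control).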

[20] = tested on: morningglory (Ipomoea spp.); assay: Test A pre-/postemergence: morningglory
In short: (§3)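 Pre: directed soil spray after planting in loam + sand. Post: same formulation (non-phytotoxic solvent + surfactant) on 1–2-leaf plants, 2–10 cm. Greenhouse ~10 d; visual injury 0–100 vs untreated.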

corn (Zea mays) = assay: Test A pre-/postemergence: corn; settings: for Corn plant response rating: Postemergence; for Plant response rating, Corn: Preemergence
In short: as §3

[21] = tested on: barnyardgrass (Echinochloa crus-galli); assay: Test A pre-/postemergence: barnyardgrass; settings: for Barnyardgrass plant response rating: Postemergence; for Plant response rating, Barnyardgrass: Preemergence
In short: as §3

[22] = tested on: sedge, umbrella (small-flower umbrella sedge Cyperus difformis); assay: Test B flooded paddy: sedge, umbrella; settings: Flood; 250 g ai/ha; applied to paddy water at 2-leaf stage; visually evaluated after 13 to 15 days
In short: as §2

[23] = tested on: wheat (Triticum aestivum); assay: Test A pre-/postemergence: wheat
In short: as §3

[24] = tested on: ducksalad (Heteranthera limosa); assay: Test B flooded paddy: ducksalad; settings: Flood; 250 g ai/ha; applied to paddy water at 2-leaf stage; visually evaluated after 13 to 15 days
In short: as §2

[25] = tested on: foxtail, giant (giant foxtail, Setaria faberii); assay: Test A pre-/postemergence: foxtail, giant; settings: for Foxtail, Giant plant response rating: Postemergence; for Plant response rating, Foxtail, Giant: Preemergence
In short: as §3

rice (Oryza sativa) = assay: Test B flooded paddy: rice; settings: Flood; 250 g ai/ha; applied to paddy water at 2-leaf stage; visually evaluated after 13 to 15 days
In short: as §2

[26] = tested on: pigweed (Amaranthus retroflexus); assay: Test A pre-/postemergence: pigweed
In short: as §3

[27] = tested on: velvetleaf (Abutilon theophrasti); assay: Test A pre-/postemergence: velvetleaf
In short: as §3

[28] = tested on: crabgrass, large (large crabgrass, Digitaria sanguinalis); assay: Test A pre-/postemergence: crabgrass, large; settings: for Crabgrass, Large plant response rating: Postemergence; for Plant response rating, Crabgrass, Large: Preemergence
In short: as §3

[29] = Postemergence, 125 g ai/ha, 0 to 100 scale, 0 is no effect, 100 is complete control
[30] = Postemergence, 500 g ai/ha, visual rating on 0 to 100 scale (0 no effect, 100 complete control), approximately ten days
[31] = Preemergence, 125 g ai/ha, 0 to 100 scale where 0 is no effect and 100 is complete control
[32] = Preemergence, 500 g ai/ha, 0 to 100 scale (0 no effect, 100 complete control)
[33] = 125 g ai/ha, 0 to 100 scale, 0 is no effect, 100 is complete control
[34] = 500 g ai/ha, visual rating on 0 to 100 scale (0 no effect, 100 complete control), approximately ten days
[35] = 125 g ai/ha, 0 to 100 scale where 0 is no effect and 100 is complete control
[36] = 500 g ai/ha, 0 to 100 scale (0 no effect, 100 complete control)

COC(=O)c1ccc(C(F)(F)F)nc1S(=O)(=O)NC(=O)Nc1nc(OC)cc(OC)n1 [b2b, flupyrsulfuron-methyl]
SINAR plant response ([1]; Rate 8): 100 | SINAR plant response ([1]; Rate 16): 95 | SINAR plant response ([1]; Rate 31): 100 | SINAR plant response ([1]; Rate 62): 100 | SASKR plant response ([2]; Rate 8): 50 | SASKR plant response ([2]; Rate 16): 50 | SASKR plant response ([2]; Rate 31): 50 | SASKR plant response ([2]; Rate 62): 60 | STEME plant response ([3]; Rate 8): 90 | STEME plant response ([3]; Rate 16): 100 | STEME plant response ([3]; Rate 31): 100 | STEME plant response ([3]; Rate 62): 100 | CHEAL plant response ([4]; Rate 8): 60 | CHEAL plant response ([4]; Rate 16): 85 | CHEAL plant response ([4]; Rate 31): 75 | CHEAL plant response ([4]; Rate 62): 80 | LOLMU plant response ([5]; Rate 8): 60 | LOLMU plant response ([5]; Rate 16): 60 | LOLMU plant response ([5]; Rate 31): 65 | LOLMU plant response ([5]; Rate 62): 80 | PAPRH plant response ([6]; Rate 8): 100 | PAPRH plant response ([6]; Rate 16): 90 | PAPRH plant response ([6]; Rate 31): 100 | PAPRH plant response ([6]; Rate 62): 95 | RAPRA plant response ([7]; Rate 8): 100 | RAPRA plant response ([7]; Rate 16): 100 | RAPRA plant response ([7]; Rate 31): 100 | RAPRA plant response ([7]; Rate 62): 100 | VIOAR plant response ([8]; Rate 8): 50 | VIOAR plant response ([8]; Rate 16): 75 | VIOAR plant response ([8]; Rate 31): 70 | VIOAR plant response ([8]; Rate 62): 95 | POLCO plant response ([9]; Rate 8): 100 | POLCO plant response ([9]; Rate 16): 85 | POLCO plant response ([9]; Rate 31): 100 | POLCO plant response ([9]; Rate 62): 100 | ALOMY plant response ([10]; Rate 8): 100 | ALOMY plant response ([10]; Rate 16): 100 | ALOMY plant response ([10]; Rate 31): 100 | ALOMY plant response ([10]; Rate 62): 100 | MATIN plant response ([11]; Rate 8): 90 | MATIN plant response ([11]; Rate 16): 95 | MATIN plant response ([11]; Rate 31): 100 | MATIN plant response ([11]; Rate 62): 95 | PHAMI plant response ([12]; Rate 8): 40 | PHAMI plant response ([12]; Rate 16): 55 | PHAMI plant response ([12]; Rate 31): 85 | PHAMI plant response ([12]; Rate 62): 90 | GALAP plant response ([13]; Rate 8): 90 | GALAP plant response ([13]; Rate 16): 95 | GALAP plant response ([13]; Rate 31): 90 | GALAP plant response ([13]; Rate 62): 100 | AMARI plant response ([14]; Rate 8): 100 | AMARI plant response ([14]; Rate 16): 100 | AMARI plant response ([14]; Rate 31): 100 | AMARI plant response ([14]; Rate 62): 100 | LAMAM plant response ([15]; Rate 8): 90 | LAMAM plant response ([15]; Rate 16): 95 | LAMAM plant response ([15]; Rate 31): 95 | LAMAM plant response ([15]; Rate 62): 90 | HORBW plant response ([16]; Rate 8): 20 | HORBW plant response ([16]; Rate 16): 30 | HORBW plant response ([16]; Rate 31): 60 | HORBW plant response ([16]; Rate 62): 70 | TRZAW plant response ([17]; Rate 8): 0 | TRZAW plant response ([17]; Rate 16): 5 | TRZAW plant response ([17]; Rate 31): 5 | TRZAW plant response ([17]; Rate 62): 25 | KCHSC plant response ([18]; Rate 8): 75 | KCHSC plant response ([18]; Rate 16): 100 | KCHSC plant response ([18]; Rate 31): 80 | KCHSC plant response ([18]; Rate 62): 95

Cc1nn(-c2ccc(F)c(F)c2)nc1Cc1ccnc(C(F)F)c1 [Compound 136]
Plant response rating, Barnyardgrass (0 to 100 scale, 0 is no effect, 100 is complete control) [19]: 45 | Plant response rating, Morningglory [20, 29]: 70 | Morningglory plant response rating [20, 30]: 100 | Plant response rating, Morningglory [20, 31]: 20 | Plant response rating, Morningglory [20, 32]: 60 | Corn plant response rating (corn (Zea mays); [33]): 20 | Corn plant response rating (corn (Zea mays); [34]): 40 | Plant response rating, Corn (corn (Zea mays); [35]): 0 | Plant response rating, Corn (corn (Zea mays); [36]): 10 | Barnyardgrass plant response rating [21, 33]: 60 | Barnyardgrass plant response rating [21, 34]: 90 | Plant response rating, Barnyardgrass [21, 35]: 70 | Plant response rating, Barnyardgrass [21, 36]: 100 | Plant response rating, Sedge, Umbrella (0 to 100 scale, 0 is no effect, 100 is complete control) [22]: 85 | Plant response rating, Wheat [23, 29]: 30 | Wheat plant response rating [23, 30]: 30 | Plant response rating, Wheat [23, 31]: 0 | Plant response rating, Wheat [23, 32]: 10 | Plant response rating, Ducksalad (0 to 100 scale, 0 is no effect, 100 is complete control) [24]: 75 | Foxtail, Giant plant response rating [25, 33]: 90 | Foxtail, Giant plant response rating [25, 34]: 90 | Plant response rating, Foxtail, Giant [25, 35]: 100 | Plant response rating, Foxtail, Giant [25, 36]: 100 | Plant response rating, Rice (0 to 100 scale, 0 is no effect, 100 is complete control) (rice (Oryza sativa)): 35 | Plant response rating, Pigweed [26, 29]: 100 | Pigweed plant response rating [26, 30]: 100 | Plant response rating, Pigweed [26, 31]: 90 | Plant response rating, Pigweed [26, 32]: 90 | Plant response rating, Velvetleaf [27, 29]: 90 | Velvetleaf plant response rating [27, 30]: 100 | Plant response rating, Velvetleaf [27, 31]: 30 | Plant response rating, Velvetleaf [27, 32]: 60 | Crabgrass, Large plant response rating [28, 33]: 60 | Crabgrass, Large plant response rating [28, 34]: 90 | Plant response rating, Crabgrass, Large [28, 35]: 80 | Plant response rating, Crabgrass, Large [28, 36]: 100
